ChEMBL document CHEMBL4483862, “Open-source discovery of chemical leads for next-generation chemoprotective antimalarials” (2018)
pIC50: −log10 of the molar value.

Tested on: Plasmodium berghei
Experiment: Luciferase/luciferin-expressing antifolate-resistant parasites were used to infect a culture of HepG2 cells that were pre-incubated with compounds. Infected hepatocytes emit light due to the luciferase reaction. Assay results are presented as the percent inhibition of light emission compared to control. […]
Type: functional
Conditions: sporozoite; for IC90: read-out: LUCIFERASE INFECTION ASSAY - IC90

Row | Structure (SMILES) | IC90 [µM] | further results
1 | CC[n+]1c(/C=C/c2ccc(SC)cc2)ccc2ccccc21 | > 7.62 | pIC50 (PBLUC_HILL_SLOPE 11.6, PBLUC_R_SQUARED 0.0577, read-out: LUCIFERASE INFECTION ASSAY - IC50): < 5.12
2 | CN(C)CCNc1nc(Oc2cccc3ccccc23)c2sccc2n1 | > 9.05 | pIC50 (PBLUC_HILL_SLOPE 11.6, PBLUC_R_SQUARED 0.0493, read-out: LUCIFERASE INFECTION ASSAY - IC50): 5.05
3 | CCNC(=O)C1CCCN(Cc2ccc3ccccc3c2Br)CC1 (stereo not given) | 3.91 | pIC50 (PBLUC_HILL_SLOPE 11.4, PBLUC_R_SQUARED 0.606, read-out: LUCIFERASE INFECTION ASSAY - IC50): 5.49
4 | COc1cc(OC)cc(-c2cn3c(-c4cccc(N(C)C)c4)cnc3cn2)c1 | > 8.81 | pIC50 (PBLUC_HILL_SLOPE 11.4, PBLUC_R_SQUARED 0.677, read-out: LUCIFERASE INFECTION ASSAY - IC50): 5.11
5 | CCOc1cccc(-c2cn3c(-c4cccc(CO)c4)cnc3cn2)c1 | > 9.55 | pIC50 (PBLUC_HILL_SLOPE 11.7, PBLUC_R_SQUARED 0.129, read-out: LUCIFERASE INFECTION ASSAY - IC50): 5.06
6 | CCn1c(NC(=O)c2oc3ccccc3c2COC)nc2ccccc21 | 4.5 | pIC50 (PBLUC_HILL_SLOPE 11.7, PBLUC_R_SQUARED 0.368, read-out: LUCIFERASE INFECTION ASSAY - IC50): 5.43
7 | CCC(C)NCCCCOc1cc(C(C)C)ccc1C (stereo not given) | > 10 | pIC50 (PBLUC_HILL_SLOPE 11.7, PBLUC_R_SQUARED 0.0741, read-out: LUCIFERASE INFECTION ASSAY - IC50): < 5.00
8 | O=C(Nn1cnc2sc3c(c2c1=O)CCCC3)c1cc(Br)ccc1O | > 10 | pIC50 (PBLUC_HILL_SLOPE 11.5, PBLUC_R_SQUARED 0.145, read-out: LUCIFERASE INFECTION ASSAY - IC50): 5.02
9 | CCCNC(=O)c1c(NC(=O)c2cc(OC)cc(OC)c2)nc2ccccn12 | > 8.63 | pIC50 (PBLUC_HILL_SLOPE 11.4, PBLUC_R_SQUARED 0.597, read-out: LUCIFERASE INFECTION ASSAY - IC50): 5.14
10 | O=C(Nn1cnc2ccccc21)c1ccccc1Nc1ccc(SC(F)F)cc1 | > 10 | pIC50 (PBLUC_HILL_SLOPE 11.6, PBLUC_R_SQUARED 0.0782, read-out: LUCIFERASE INFECTION ASSAY - IC50): 5.06
11 | CCOc1ccc(NS(=O)(=O)c2ccc(NC(=O)c3ccc(OC)c(S(=O)(=O)N4CCCCC4C)c3)cc2)cc1 (stereo not given) | > 10 | pIC50 (PBLUC_HILL_SLOPE 11.8, PBLUC_R_SQUARED 0.201, read-out: LUCIFERASE INFECTION ASSAY - IC50): 5.03
12 | CC(C)C(=O)Nc1c(-c2ccc(Cl)c(Cl)c2)c(=O)c2ccccc2n1C | 3.11 | pIC50 (PBLUC_HILL_SLOPE 11.7, PBLUC_R_SQUARED 0.375, read-out: LUCIFERASE INFECTION ASSAY - IC50): 5.59
13 | CC(C)Cc1nc2oc3c(NCCN(C)C)ncnc3c2c2c1COC(C)(C)C2 | > 8.3 | pIC50 (PBLUC_HILL_SLOPE 11.6, PBLUC_R_SQUARED 0.0696, read-out: LUCIFERASE INFECTION ASSAY - IC50): 5.12
14 | Nc1ccc(-c2cn3c(-c4ccc(O)cc4)cnc3cn2)cn1 | > 10.9 | pIC50 (PBLUC_HILL_SLOPE 11.6, PBLUC_R_SQUARED 0.257, read-out: LUCIFERASE INFECTION ASSAY - IC50): 4.99
15 | Cc1cc(C)nc(SCC(=O)N2CCN(C(=O)c3ccco3)CC2)n1 | 3.74 | pIC50 (PBLUC_HILL_SLOPE 11.5, PBLUC_R_SQUARED 0.424, read-out: LUCIFERASE INFECTION ASSAY - IC50): 5.51
16 | O=[N+]([O-])c1cnc(Sc2nnc(SCC3CC3)s2)s1 | > 9.93 | pIC50 (PBLUC_HILL_SLOPE 11.6, PBLUC_R_SQUARED 0.0358, read-out: LUCIFERASE INFECTION ASSAY - IC50): 5.01
17 | O=C(/C=C/c1csc(-c2ccc(Cl)cc2)n1)c1cccc(O)c1 | 4.93 | pIC50 (PBLUC_HILL_SLOPE 11.6, PBLUC_R_SQUARED 0.644, read-out: LUCIFERASE INFECTION ASSAY - IC50): 5.39
18 | CC(=O)c1c(C)[nH]c(C(=O)CSc2c(C)c(C)cc(C)c2C)c1C | > 10 | pIC50 (PBLUC_HILL_SLOPE 11.6, PBLUC_R_SQUARED 0.344, read-out: LUCIFERASE INFECTION ASSAY - IC50): < 5.00
19 | c1cncc(-c2nc(Oc3ccc(-c4nnc5n4CCCCC5)cc3)c3ccccc3n2)c1 | > 10 | pIC50 (PBLUC_HILL_SLOPE 11.7, PBLUC_R_SQUARED 0.282, read-out: LUCIFERASE INFECTION ASSAY - IC50): < 5.00
20 | Cc1ccc(NC(=O)C(Sc2nnc3n(-c4ccccc4)c(=O)c4ccccc4n23)c2ccccc2)c([N+](=O)[O-])c1 (stereo not given) | > 10 | pIC50 (PBLUC_HILL_SLOPE 11.5, 36.4, PBLUC_R_SQUARED 0.176, 0.319, read-out: LUCIFERASE INFECTION ASSAY - IC50): 5.02

Row | Structure (SMILES) | IC90 [µM] | further results
21 | Cn1c(SCC(=O)c2ccc(Cl)cc2)nnc1-c1ccc(C(C)(C)C)cc1 | > 8.25 | pIC50 (PBLUC_HILL_SLOPE 11.7, PBLUC_R_SQUARED 0.0355, read-out: LUCIFERASE INFECTION ASSAY - IC50): < 5.08
22 | Cc1cc(C2=NN/C(=N/C3CC3)SC2)c(C)n1-c1cccc(S(=O)(=O)N2CCOCC2)c1 | > 10 | pIC50 (PBLUC_HILL_SLOPE 11.7, PBLUC_R_SQUARED 0.69, read-out: LUCIFERASE INFECTION ASSAY - IC50): 5.03
23 | Cc1cccc(C)c1NC(=O)Nc1nc(C(N)Cc2ccc(C(F)(F)F)cc2)cs1 (stereo not given) | > 7.6 | pIC50 (PBLUC_HILL_SLOPE 11.8, PBLUC_R_SQUARED 0.0609, read-out: LUCIFERASE INFECTION ASSAY - IC50): 5.16
24 | O=C(Nc1cc(C(F)(F)F)ccc1N1CCOCC1)c1ccc(SCc2cscn2)cc1 | > 10 | pIC50 (PBLUC_HILL_SLOPE 11.6, PBLUC_R_SQUARED 0.493, read-out: LUCIFERASE INFECTION ASSAY - IC50): 5.05
25 | CC(C)(C)c1ccc(C(=O)Nc2cccc(F)c2C#N)cc1 | > 11.1 | pIC50 (PBLUC_HILL_SLOPE 11.7, PBLUC_R_SQUARED 0.257, read-out: LUCIFERASE INFECTION ASSAY - IC50): 5.03
26 | COCCNC(=O)c1nn(CCC(C)C)c2c1CN(C(=O)c1cc(C)n[nH]1)CC2 | 3.47 | pIC50 (PBLUC_HILL_SLOPE 11.6, PBLUC_R_SQUARED 0.412, read-out: LUCIFERASE INFECTION ASSAY - IC50): 5.54
27 | Cc1cc(NC(=O)/C=C/c2cn(-c3ccccc3)nc2-c2cccnc2)ccc1N1CCN(C)CC1 | 4.23 | pIC50 (PBLUC_HILL_SLOPE 11.7, PBLUC_R_SQUARED 0.29, read-out: LUCIFERASE INFECTION ASSAY - IC50): 5.46
28 | Cc1cc(C)c(NC(=O)CNC(=O)c2ccc(-c3ccccc3)cc2)c(C)c1 | > 10 | pIC50 (PBLUC_HILL_SLOPE 11.6, PBLUC_R_SQUARED 0.0183, read-out: LUCIFERASE INFECTION ASSAY - IC50): < 5.00
29 | NC(Cc1ccc(Cl)cc1)c1csc(NC(=O)Nc2ccccc2Cc2ccccc2)n1 (stereo not given) | > 7.13 | pIC50 (PBLUC_HILL_SLOPE 11.7, PBLUC_R_SQUARED 0.713, read-out: LUCIFERASE INFECTION ASSAY - IC50): 5.19
30 | CN1CCCN(C(=O)C2CCN(c3oc(-c4ccco4)nc3C#N)CC2)c2nc3ccccc3nc21 | 4.67 | pIC50 (PBLUC_HILL_SLOPE 11.5, PBLUC_R_SQUARED 0.327, read-out: LUCIFERASE INFECTION ASSAY - IC50): 5.41
31 | Cc1c(Cl)cc(NC(=O)Nc2ccccc2)c(O)c1Cl | > 10.6 | pIC50 (PBLUC_HILL_SLOPE 11.8, PBLUC_R_SQUARED 0.519, read-out: LUCIFERASE INFECTION ASSAY - IC50): 5.01
32 | CSc1ccc(-c2cn3c(-c4ccc(C(=O)NC5CC5)cc4)cnc3cn2)cc1 | > 8.24 | pIC50 (PBLUC_HILL_SLOPE 11.7, PBLUC_R_SQUARED 0.658, read-out: LUCIFERASE INFECTION ASSAY - IC50): 5.14
33 | Clc1ccc(N/N=C/Cc2nnnn2-c2ccccc2)cc1 | > 10.6 | pIC50 (PBLUC_HILL_SLOPE 11.7, PBLUC_R_SQUARED 0.117, read-out: LUCIFERASE INFECTION ASSAY - IC50): 5.00
34 | COc1ccc(-c2cnc3cnc(-c4cccc(C(=O)N(C)C)c4)cn23)cc1 | 4.08 | pIC50 (PBLUC_HILL_SLOPE 11.5, PBLUC_R_SQUARED 0.453, read-out: LUCIFERASE INFECTION ASSAY - IC50): 5.47
35 | COc1cc(-c2cc3nc(Nc4ccc5c[nH]nc5c4)ccn3n2)cc(OC)c1OC | > 7.92 | pIC50 (PBLUC_HILL_SLOPE 11.7, PBLUC_R_SQUARED 0.319, read-out: LUCIFERASE INFECTION ASSAY - IC50): 5.14
36 | O=C(Cc1csc(COc2ccc(Cl)cc2)n1)Nc1ccccc1O | > 10 | pIC50 (PBLUC_HILL_SLOPE 11.8, PBLUC_R_SQUARED 0.113, read-out: LUCIFERASE INFECTION ASSAY - IC50): 5.03
37 | Cc1cc(Cl)ccc1OCCCC(=O)NCCn1c(C)nc2ccccc21 | > 10 | pIC50 (PBLUC_HILL_SLOPE 11.5, PBLUC_R_SQUARED 0.538, read-out: LUCIFERASE INFECTION ASSAY - IC50): 5.03
38 | CC(Sc1nnc(-c2ccc[nH]2)o1)C(=O)c1ccc(C(C)(C)C)cc1 (stereo not given) | > 10 | pIC50 (PBLUC_HILL_SLOPE 11.5, PBLUC_R_SQUARED 0.42, read-out: LUCIFERASE INFECTION ASSAY - IC50): 5.05
39 | Cc1cccc(-c2cn3c(-c4ccc(CO)cc4)cnc3cn2)c1C | > 10 | pIC50 (PBLUC_HILL_SLOPE 11.7, PBLUC_R_SQUARED 0.283, read-out: LUCIFERASE INFECTION ASSAY - IC50): 5.08
40 | CCN(CC)S(=O)(=O)c1ccc(OC(C)C)c(NC(=O)C2=CN3CCS(=O)(=O)N=C3C=C2)c1 | 4.52 | pIC50 (PBLUC_HILL_SLOPE 11.8, PBLUC_R_SQUARED 0.349, read-out: LUCIFERASE INFECTION ASSAY - IC50): 5.43
